Data from ChEMBL document CHEMBL5465560, “Selectivity Literature for EUbOPEN Chemogenomic Library” (2024).

Experiments:
[1] = target: T1, Serine/threonine-protein kinase Nek10 (Homo sapiens) (UniProt Q6ZWH5); assay: Selectivity interaction (KinomeScan (DiscoverX)) EUB0000229b NEK10; details: at 10 µM
T1 sequence (whole entry): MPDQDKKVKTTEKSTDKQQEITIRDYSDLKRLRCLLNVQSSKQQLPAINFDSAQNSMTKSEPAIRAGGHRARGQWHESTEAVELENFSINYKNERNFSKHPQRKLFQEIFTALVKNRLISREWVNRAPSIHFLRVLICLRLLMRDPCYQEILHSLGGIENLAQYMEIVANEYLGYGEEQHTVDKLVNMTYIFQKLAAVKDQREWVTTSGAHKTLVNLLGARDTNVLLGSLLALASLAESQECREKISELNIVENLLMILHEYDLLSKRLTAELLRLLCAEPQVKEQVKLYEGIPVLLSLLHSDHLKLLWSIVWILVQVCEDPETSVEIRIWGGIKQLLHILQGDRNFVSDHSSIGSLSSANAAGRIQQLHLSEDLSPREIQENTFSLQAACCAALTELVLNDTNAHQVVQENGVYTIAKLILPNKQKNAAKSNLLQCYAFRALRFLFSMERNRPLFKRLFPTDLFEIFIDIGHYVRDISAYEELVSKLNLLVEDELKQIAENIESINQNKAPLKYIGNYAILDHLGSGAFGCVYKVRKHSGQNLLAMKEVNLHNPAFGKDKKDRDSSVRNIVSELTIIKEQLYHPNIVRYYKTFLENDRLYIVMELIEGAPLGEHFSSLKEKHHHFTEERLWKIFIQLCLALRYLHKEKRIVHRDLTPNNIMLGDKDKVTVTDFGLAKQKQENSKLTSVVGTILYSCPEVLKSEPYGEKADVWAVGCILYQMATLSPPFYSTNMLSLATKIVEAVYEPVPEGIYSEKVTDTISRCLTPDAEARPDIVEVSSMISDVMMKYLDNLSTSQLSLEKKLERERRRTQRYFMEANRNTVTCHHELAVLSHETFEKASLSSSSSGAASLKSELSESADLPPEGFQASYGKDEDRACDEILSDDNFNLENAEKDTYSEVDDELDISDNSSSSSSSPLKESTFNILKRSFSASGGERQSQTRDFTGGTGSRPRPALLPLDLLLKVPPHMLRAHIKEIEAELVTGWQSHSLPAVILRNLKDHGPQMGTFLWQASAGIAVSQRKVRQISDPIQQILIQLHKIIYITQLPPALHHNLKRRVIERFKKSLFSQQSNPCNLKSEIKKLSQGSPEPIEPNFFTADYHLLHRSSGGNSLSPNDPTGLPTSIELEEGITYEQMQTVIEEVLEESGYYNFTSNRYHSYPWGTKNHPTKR

[2] = target: T2, 3-phosphoinositide-dependent protein kinase 1 (Homo sapiens) (UniProt O15530); assay: Selectivity interaction (KinomeScan (DiscoverX)) EUB0000655a PDPK1; details: at 10 µM
T2 sequence (whole entry): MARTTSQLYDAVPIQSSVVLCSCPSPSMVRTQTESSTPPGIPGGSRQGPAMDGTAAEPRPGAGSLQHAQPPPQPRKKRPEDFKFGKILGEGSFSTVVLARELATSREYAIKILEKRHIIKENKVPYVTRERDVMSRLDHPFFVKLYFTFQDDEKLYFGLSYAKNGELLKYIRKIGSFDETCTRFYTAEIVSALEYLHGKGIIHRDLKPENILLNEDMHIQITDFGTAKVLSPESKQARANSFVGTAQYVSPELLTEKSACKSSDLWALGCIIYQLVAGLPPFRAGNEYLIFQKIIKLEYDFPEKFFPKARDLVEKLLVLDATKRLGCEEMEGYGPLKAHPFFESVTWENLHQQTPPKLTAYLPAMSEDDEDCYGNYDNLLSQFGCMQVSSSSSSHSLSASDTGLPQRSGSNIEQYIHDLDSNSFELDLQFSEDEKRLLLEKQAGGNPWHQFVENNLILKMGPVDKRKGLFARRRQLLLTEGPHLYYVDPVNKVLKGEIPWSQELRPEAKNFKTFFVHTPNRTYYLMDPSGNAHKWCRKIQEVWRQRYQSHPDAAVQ

[3] = target: Ephrin type-B receptor 4 (Homo sapiens, UniProt P54760); assay: Selectivity interaction (Kinase panel (33PanQinase(R) Activity Assay)) EUB0000877a EPHB4
Ephrin type-B receptor 4, sequence (P54760 whole entry): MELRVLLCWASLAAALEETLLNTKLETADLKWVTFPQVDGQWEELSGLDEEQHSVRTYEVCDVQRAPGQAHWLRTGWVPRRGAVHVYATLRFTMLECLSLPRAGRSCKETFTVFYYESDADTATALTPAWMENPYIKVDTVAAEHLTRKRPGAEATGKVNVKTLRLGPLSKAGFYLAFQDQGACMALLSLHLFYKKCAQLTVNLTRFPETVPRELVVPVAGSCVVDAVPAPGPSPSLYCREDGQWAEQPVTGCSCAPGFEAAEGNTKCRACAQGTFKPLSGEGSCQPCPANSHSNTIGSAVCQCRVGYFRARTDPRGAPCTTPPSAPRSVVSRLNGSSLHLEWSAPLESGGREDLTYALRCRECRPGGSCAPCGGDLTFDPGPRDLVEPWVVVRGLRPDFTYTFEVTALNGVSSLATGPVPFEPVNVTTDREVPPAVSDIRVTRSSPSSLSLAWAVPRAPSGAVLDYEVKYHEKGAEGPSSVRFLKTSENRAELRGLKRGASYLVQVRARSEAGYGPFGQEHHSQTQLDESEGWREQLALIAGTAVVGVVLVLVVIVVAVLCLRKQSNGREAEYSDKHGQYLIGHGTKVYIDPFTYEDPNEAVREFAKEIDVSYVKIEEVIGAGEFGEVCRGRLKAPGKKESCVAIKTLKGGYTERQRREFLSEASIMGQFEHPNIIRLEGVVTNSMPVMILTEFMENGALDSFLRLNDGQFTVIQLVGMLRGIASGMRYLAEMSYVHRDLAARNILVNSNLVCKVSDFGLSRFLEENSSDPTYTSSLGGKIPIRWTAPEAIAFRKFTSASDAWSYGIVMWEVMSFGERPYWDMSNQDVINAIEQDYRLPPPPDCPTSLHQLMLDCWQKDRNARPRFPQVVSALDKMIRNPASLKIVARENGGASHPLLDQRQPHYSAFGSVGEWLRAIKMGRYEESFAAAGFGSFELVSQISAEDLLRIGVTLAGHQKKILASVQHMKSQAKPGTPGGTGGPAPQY

[4] = target: Serine/threonine-protein kinase PAK 6 (Homo sapiens) (UniProt Q9NQU5); details: at 10 µM
Serine/threonine-protein kinase PAK 6 (Homo sapiens), sequence (Q9NQU5 whole entry, looked up): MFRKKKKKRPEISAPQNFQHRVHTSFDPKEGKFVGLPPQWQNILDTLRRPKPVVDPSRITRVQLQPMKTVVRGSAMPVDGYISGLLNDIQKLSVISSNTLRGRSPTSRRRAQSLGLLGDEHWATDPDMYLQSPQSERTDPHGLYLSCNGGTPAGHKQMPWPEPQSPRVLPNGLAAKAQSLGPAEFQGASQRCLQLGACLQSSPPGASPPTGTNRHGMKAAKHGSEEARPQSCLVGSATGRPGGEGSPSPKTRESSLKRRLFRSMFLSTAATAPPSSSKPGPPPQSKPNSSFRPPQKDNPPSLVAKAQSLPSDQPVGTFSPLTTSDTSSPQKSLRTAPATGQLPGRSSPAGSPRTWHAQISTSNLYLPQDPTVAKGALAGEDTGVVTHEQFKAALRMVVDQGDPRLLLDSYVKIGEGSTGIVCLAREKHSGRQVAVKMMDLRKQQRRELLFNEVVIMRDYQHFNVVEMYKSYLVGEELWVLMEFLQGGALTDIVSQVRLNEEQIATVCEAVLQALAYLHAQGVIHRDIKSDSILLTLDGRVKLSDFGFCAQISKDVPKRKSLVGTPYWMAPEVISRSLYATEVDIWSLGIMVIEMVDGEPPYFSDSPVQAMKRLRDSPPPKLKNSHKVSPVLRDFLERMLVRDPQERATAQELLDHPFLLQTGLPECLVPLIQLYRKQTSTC

[5] = target: Serine/threonine-protein kinase PRP4 homolog (Homo sapiens) (UniProt Q13523); assay: Selectivity interaction (Ambit KINOMEscan and KiNATiv profiling in Jurkat cells) EUB0000090b PRPF4; assay type: cell-based; details: at 1 µM
Serine/threonine-protein kinase PRP4 homolog (Homo sapiens), sequence (Q13523 whole entry): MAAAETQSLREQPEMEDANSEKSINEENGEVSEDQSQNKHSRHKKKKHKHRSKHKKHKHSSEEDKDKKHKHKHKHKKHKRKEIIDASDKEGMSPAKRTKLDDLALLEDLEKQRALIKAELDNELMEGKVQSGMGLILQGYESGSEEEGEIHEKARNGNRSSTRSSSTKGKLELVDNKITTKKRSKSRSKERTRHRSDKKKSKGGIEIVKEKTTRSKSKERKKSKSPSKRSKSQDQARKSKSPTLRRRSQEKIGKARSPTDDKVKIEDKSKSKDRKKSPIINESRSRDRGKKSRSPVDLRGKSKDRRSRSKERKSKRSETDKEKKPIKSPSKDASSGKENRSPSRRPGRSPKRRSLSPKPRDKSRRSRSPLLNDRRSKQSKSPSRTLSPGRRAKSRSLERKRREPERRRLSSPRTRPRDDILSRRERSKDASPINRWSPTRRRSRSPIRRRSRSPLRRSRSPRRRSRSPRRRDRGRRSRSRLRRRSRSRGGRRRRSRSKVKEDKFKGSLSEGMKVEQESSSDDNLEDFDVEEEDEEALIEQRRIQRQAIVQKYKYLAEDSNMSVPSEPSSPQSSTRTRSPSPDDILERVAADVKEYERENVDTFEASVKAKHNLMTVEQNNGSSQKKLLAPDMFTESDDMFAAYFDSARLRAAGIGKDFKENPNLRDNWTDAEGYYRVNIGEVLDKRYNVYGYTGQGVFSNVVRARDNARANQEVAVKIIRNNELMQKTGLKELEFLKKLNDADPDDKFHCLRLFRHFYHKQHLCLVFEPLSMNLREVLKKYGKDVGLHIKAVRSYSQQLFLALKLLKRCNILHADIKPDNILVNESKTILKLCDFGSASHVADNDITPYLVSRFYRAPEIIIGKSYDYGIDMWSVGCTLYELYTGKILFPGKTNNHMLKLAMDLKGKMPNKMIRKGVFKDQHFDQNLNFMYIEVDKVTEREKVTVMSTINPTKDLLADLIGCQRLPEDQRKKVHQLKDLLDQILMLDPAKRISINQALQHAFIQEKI

[6] = target: Tyrosine-protein kinase HCK (Homo sapiens) (UniProt P08631); assay: Selectivity interaction (ActivX KiNativ screen (ex vivo kinase selectivity in human PBMCs)) EUB0001619a HCK; assay type: cell-based; details: PBMC, at 1 µM
Tyrosine-protein kinase HCK (Homo sapiens), sequence (P08631 2-526 limits assumed): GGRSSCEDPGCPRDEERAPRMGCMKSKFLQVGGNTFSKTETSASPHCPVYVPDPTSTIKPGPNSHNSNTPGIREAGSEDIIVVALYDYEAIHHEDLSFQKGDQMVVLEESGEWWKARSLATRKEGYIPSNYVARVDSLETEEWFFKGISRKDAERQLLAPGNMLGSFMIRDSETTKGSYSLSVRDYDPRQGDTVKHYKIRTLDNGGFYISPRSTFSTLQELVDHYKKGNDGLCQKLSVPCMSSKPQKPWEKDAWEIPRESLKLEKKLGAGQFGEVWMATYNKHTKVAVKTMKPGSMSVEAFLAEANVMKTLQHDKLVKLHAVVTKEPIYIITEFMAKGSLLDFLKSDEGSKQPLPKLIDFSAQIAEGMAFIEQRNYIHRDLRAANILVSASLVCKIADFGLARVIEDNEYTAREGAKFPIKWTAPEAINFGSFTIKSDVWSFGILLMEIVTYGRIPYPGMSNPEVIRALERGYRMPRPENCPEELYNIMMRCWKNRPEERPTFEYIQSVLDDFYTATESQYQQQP

Structure (SMILES): COc1cc(N(C)c2ccnc3ccc(C(F)(F)F)cc23)cc(OC)c1OC
- % binding [1]: 100%

Structure (SMILES): CN(C)CCOc1ccc(-c2nc(-c3ccncc3)c(-c3ccc4c(c3)CC/C4=N\O)[nH]2)cc1
- % of control [2]: 88%

Structure (SMILES): CCC(=O)N1CC[C@H](Nc2ncnc3c2CN(c2cnc(OC)c(C(F)(F)F)c2)CC3)C1 [LENIOLISIB]
- IC50 [3]: > 10 µM

Structure (SMILES): Cc1cc([C@@H](C)Nc2ccccc2C(=O)O)c2nc(N3CCOCC3)cc(=O)n2c1 [AZD-6482]
- % of control [4]: 99%

Structure (SMILES): CN(C)C/C=C/C(=O)Nc1ccc(C(=O)N2CCCC(Nc3ncc(Cl)c(-c4c[nH]c5ccccc45)n3)C2)cc1 (stereo unspecified)
- % of control [5]: 74%

Structure (SMILES): N#Cc1cccc(-c2c[nH]c3ncnc(N4CCOCC4)c23)c1
- % of inhibition [6]: 21%
